Where a name gives a salt, the structure may show the parent alone.
Key:
L6-myotubes [1] = assay: Glucose uptake (3H-2-deoxy-glucose) in differentiated L6-myotubes; type: cell-based; conditions: agonist final concentration 1×10^−5; for Biological example 3: Table 2, glucose uptake assay of Biological Example 1
Experimental: (§1) L6-myoblasts were grown in Dulbecco's Modified Eagle's Medium (DMEM) containing 4.5 g/l glucose supplemented with 10% fetal bovine serum, 2 mM L-Glutamine, 50 U/ml penicillin, 50 μg/ml streptomycin and 10 mM HEPES. Cells were plated at 1×10^5 cells per ml in 24-well plates. After reaching 90% confluence the cells were grown in medium containing 2% FBS for 7 days where upon cells differentiated into myotubes.
Differentiated L6-myotubes were serum-starved overnight in medium containing 0,5% fatty-acid free BSA and stimulated with agonist, final concentration 1×10^−5. After 1 h 40 min cells were washed with warm, glucose free medium or PBS and another portion of agonist was added to glucose free medium. After 20 min the cells were exposed to 50 nM ^3H-2-deoxy-glucose for another 10 min before washed in ice cold glucose free medium or PBS and lysed in 0.2 M NaOH for 1 h in 60° C.

L6-myotubes [2] = assay: Measurement of intracellular cAMP levels in differentiated L6-myotubes; type: cell-based; conditions: for Biological example 4: Table 2, cAMP assay of Biological Example 2, agonist final concentration 1×10^−5
Experimental: as §1
Differentiated cells were serum-starved overnight and stimulated with agonist, final concentration 1×10^−5, for 15 min in stimulation buffer (HBSS supplemented with 1% BSA, 5 mM HEPES and 1 mM IBMX, pH 7,4) The medium was then aspirated and to end the reaction 100 μL of 95% EtOH was added to each well of a 24-well plate and cells were kept in −20° C. over night. The EtOH was let to evaporate and 500 μL of lysis buffer (1% BSA, 5 mM HEPES and 0,3% Tween-20, pH 7,4) was added to each well before put in −80° C. for 30 min and then kept in −20° C. Intracellular cAMP levels were detected using an alpha screen cAMP kit (6760635D from Perkin Elmer). The activity for each compound is compared to that of isoproterenol.

| Compound | Emax at 10 µM (L6-myotubes [1]; differentiated L6-myotubes, Table 1, read-out: Biological example 1 (glucose uptake, activity compared to that of isoproterenol)) [%] | Emax at 10 µM (L6-myotubes [2]; 0.25 h, agonist final concentration 1×10^−5, 15 min, differentiated cells, Table 1, read-out: Biological example 2 (intracellular cAMP levels, activity compared to that of isoproterenol)) [%] | Biological example 3 (L6-myotubes [1]) | Biological example 4 (L6-myotubes [2]) |
| --- | --- | --- | --- | --- |
| O[C@@H](c1cccc(F)c1)[C@H]1CCC2(CCCC2)N1 [Example 32, (S)-(3-Fluorophenyl)((R)-1-azaspiro[4.4]nonan-2-yl)methanol maleate] | < 25 | < 25 | – | – |
| CC1(C)C[C@H]([C@H](O)c2cccc(F)c2)N1.Cl [Example 33, (R)-((R)-4,4-dimethylazetidin-2-yl)(3-fluorophenyl)methanol hydrochloride] | – | – | +++ (more than 75% of that of isoproterenol) | ++ (between 75 and 50%) |
| CC1(C)C[C@@H]([C@@H](O)c2ccccc2F)N1.Cl [Example 34, (S)-((S)-4,4-dimethylazetidin-2-yl)(2-fluorophenyl)methanol hydrochloride] | – | – | + (between 50 and 25%) | − (less than 25%) |
| CC1(C)C[C@H]([C@H](O)c2ccccc2F)N1.Cl [Example 35, (R)-((R)-4,4-dimethylazetidin-2-yl)(2-fluorophenyl)methanol hydrochloride] | – | – | +++ (more than 75% of that of isoproterenol) | + (between 50 and 25%) |
| CC1(C)C[C@H]([C@@H](O)c2ccccc2F)N1.Cl [Example 36, (S)-((R)-4,4-dimethylazetidin-2-yl)(2-fluorophenyl)methanol hydrochloride] | – | – | + (between 50 and 25%) | − (less than 25%) |
| CC1(C)C[C@@H]([C@H](O)c2ccccc2F)N1.Cl [Example 37, (R)-((S)-4,4-dimethylazetidin-2-yl)(2-fluorophenyl)methanol hydrochloride] | – | – | − (less than 25%) | − (less than 25%) |
| CC1(C)C[C@@H]([C@H](O)c2cccc(F)c2)N1.Cl [Example 39, (R)-((S)-4,4-dimethylazetidin-2-yl)(3-fluorophenyl)methanol hydrochloride] | – | – | − (less than 25%) | − (less than 25%) |
| CC1(C)C[C@@H]([C@@H](O)c2cccc(F)c2)N1.Cl [Example 40, (S)-((S)-4,4-dimethylazetidin-2-yl)(3-fluorophenyl)methanol hydrochloride] | – | – | + (between 50 and 25%) | − (less than 25%) |
| CC1(C)CCC[C@@H]([C@H](O)c2ccccc2F)N1.Cl [Example 41, (R)-((S)-6,6-dimethylpiperidin-2-yl)(2-fluorophenyl)methanol hydrochloride] | – | – | +++ (more than 75% of that of isoproterenol) | + (between 50 and 25%) |
| CC1(C)CCC[C@@H]([C@@H](O)c2ccccc2F)N1.Cl [Example 42, (S)-((S)-6,6-dimethylpiperidin-2-yl)(2-fluorophenyl)methanol hydrochloride] | – | – | + (between 50 and 25%) | − (less than 25%) |
| CC1(C)CCC[C@@H]([C@@H](O)c2cccc(F)c2)N1.Cl [Example 43, (S)-((S)-6,6-dimethylpiperidin-2-yl)(3-fluorophenyl)methanol hydrochloride] | – | – | + (between 50 and 25%) | − (less than 25%) |
| CC1(C)CCC[C@@H]([C@H](O)c2cccc(F)c2)N1.Cl [Example 44, (R)-((S)-6,6-dimethylpiperidin-2-yl)(3-fluorophenyl)methanol hydrochloride] | – | – | ++ (between 75 and 50%) | − (less than 25%) |
| CC1(C)C[C@H]([C@H](O)c2cccc(Cl)c2)N1.O=C(O)/C=C\C(=O)O [Example 45, (R)-(3-chlorophenyl)((R)-4,4-dimethylazetidin-2-yl)methanol maleate] | – | – | +++ (more than 75% of that of isoproterenol) | − (less than 25%) |
| CC1(C)C[C@H]([C@@H](O)c2cccc(Cl)c2)N1.O=C(O)/C=C\C(=O)O [Example 46, (S)-(3-chlorophenyl)((R)-4,4-dimethylazetidin-2-yl)methanol maleate] | – | – | − (less than 25%) | − (less than 25%) |
| CC1(C)C[C@@H]([C@H](O)c2cccc(Cl)c2)N1.O=C(O)/C=C\C(=O)O [Example 47, (R)-(3-chlorophenyl)((S)-4,4-dimethylazetidin-2-yl)methanol maleate] | – | – | ++ (between 75 and 50%) | − (less than 25%) |
| CC1(C)C[C@@H]([C@@H](O)c2cccc(Cl)c2)N1.O=C(O)/C=C\C(=O)O [Example 48, (S)-(3-chlorophenyl)((S)-4,4-dimethylazetidin-2-yl)methanol maleate] | – | – | + (between 50 and 25%) | − (less than 25%) |
| CC1(C)CC[C@H]([C@H](O)c2cccc(N)c2F)N1.Cl [Example 49, (R)-(3-amino-2-fluorophenyl)((R)-5,5-dimethylpyrrolidin-2-yl)methanol hydrochloride] | – | – | +++ (more than 75% of that of isoproterenol) | − (less than 25%) |
| CC1(C)CC[C@H]([C@@H](O)c2cccc(N)c2F)N1.Cl [Example 50, (S)-(3-amino-2-fluorophenyl)((R)-5,5-dimethylpyrrolidin-2-yl)methanol hydrochloride] | – | – | + (between 50 and 25%) | − (less than 25%) |
